Reference: US4530903A, “L-2-hydroxy-4-methylpentanoic acid-dehydrogenase, process for obtaining it and its use” (Degussa Aktiengelleschaft, priority 1982, dated 1985)
Each block holds one molecule with its values, some of them ahead of it.

Assays:
[1] = target: T1, L-2-hydroxy-4-methylpentanoic acid-dehydrogenase (Weissella confusa, UniProt P14295); assay: Dehydrogenation of 2-hydroxycarboxylic acids to 2-ketocarboxylic acids (Example 1), NADH formation at 340 nm; type: biochemical, Lactobacillus confusus; details: same enzyme solution
T1 construct: the cells harvesting by centrifugation, solubilizing the product in a suspension buffered to pH 7 and obtaining the enzyme from the extract; made in house; host or cells: Lactobacillus confusus DSM 20196 (natural producer, not recombinant)
T1 sequence (P14295 1-310): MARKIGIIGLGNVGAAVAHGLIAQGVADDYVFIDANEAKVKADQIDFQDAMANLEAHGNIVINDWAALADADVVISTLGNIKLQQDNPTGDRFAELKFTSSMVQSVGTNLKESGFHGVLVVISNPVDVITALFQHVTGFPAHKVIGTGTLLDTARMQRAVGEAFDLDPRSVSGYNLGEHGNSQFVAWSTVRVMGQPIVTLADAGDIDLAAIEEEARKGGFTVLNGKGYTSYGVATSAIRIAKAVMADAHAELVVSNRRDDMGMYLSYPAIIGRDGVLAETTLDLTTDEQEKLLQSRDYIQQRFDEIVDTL
Description: (§1) In each case, there was measured the maximal initial reaction velocity Vmax and the KM value. […] In a corresponding manner, the enzymatic activity against other 2-hydroxycarboxylic acids was determined. The concentration of the corresponding 2-hydroxycarboxylic acids in the test was varied between 0.2 and a maximum of 100 millimoles. By increasing the substrate concentration, the maximum beginning reaction velocity Vmax was ascertained. The Michaelis constant (KM value) corresponds to the substrate concentration in moles/liter, at which the reaction velocity V amounts to half the maximum initial reaction velocity. The kinetic constants Vmax and KM were ascertained through non-linear regression of the Michaelis-[…] and are collected in Table 2. […] The relative activities (U/ml) set forth in Table 3 were measured at substrate-final concentrations of 1 millimole, 10 millimoles, and 100 millimoles. In all cases, there was employed the same enzyme solution.

[2] = target: T1, L-2-hydroxy-4-methylpentanoic acid-dehydrogenase; assay: Reduction of 2-ketocarboxylic acids to L-2-hydroxycarboxylic acids (Example 2), NADH decrease at 340 nm; type: biochemical, Lactobacillus confusus; details: same enzyme solution
Description: (§2) In each case, there was again measured the maximal beginning reaction velocity Vmax and the KM value. […] In a corresponding manner there was determined the enzyme activity against other 2-ketocarboxylic acids. The keto acid concentration in each case was varied in the range of 0.01 to a maximum of 10 millimoles. The maximal initial reaction velocity was ascertained through the increase of the substrate concentration. The Michaelis constant (KM value) corresponds to the substrate concentration in moles/liter at which the reaction velocity V is half the maximum initial reaction velocity. The kinetic constants Vmax and KM were ascertained through nonlinear regression of the Michaelis-[…] equation and are summarized in following Table 4. The relative activities (U/ml) stated in Table 5 were measured at substrate final concentrations of 0.1 millimoles, 1 millimole, and 10 millimoles. In all cases, there was employed the same enzyme solution. At 10 millimoles in all substrates there was already noticeable a substrate excess inhibition.

[3] = substrate: NC(=O)c1ccc[n+]([C@@H]2O[C@H](COP(=O)([O-])OP(=O)(O)OC[C@H]3O[C@@H](n4cnc5c(N)ncnc54)[C@H](O)[C@@H]3O)[C@@H](O)[C@H]2O)c1; assay: Dependency of the dehydrogenation reaction velocity on the NAD+ concentration; type: biochemical, Lactobacillus confusus; details: other: pH 8.0, 6.3 millimoles L-2-hydroxy-4-methylpentanoic acid, NAD+ 0.05 to 7.0 millimoles
Text: The dependency of the reaction velocity on the NAD^+ concentration was ascertained in a test mixture which contained 0.1 molar phosphate buffer for pH 8.0, 6.3 millimoles of L-2-hydroxy-4-methylpentanoic acid and limiting amounts of enzyme. The NAD^+ concentration was varied in the range of 0.05 to 7.0 millimoles.
The KM value for NAD^+ was ascertained by non-linear regression of the Michaelis-Menten equation and was 3.3×10^-4 moles.

[4] = substrate: CSCCC(O)C(=O)O; assay: purified protein, by the assay type; type: biochemical, Lactobacillus confusus; details: other: dehydrogenation, pH 8.0, 3 mmoles NAD+, with the enantiomer mixture based on the total concentration
Description: as §1

[5] = substrate: CCCC(O)C(=O)O; assay: purified protein, by the assay type; type: biochemical, Lactobacillus confusus; details: other: dehydrogenation, pH 8.0, 3 mmoles NAD+, with the enantiomer mixture based on the total concentration
Description: as §1

[6] = substrate: CC(C)CC(O)C(=O)O; assay: purified protein, by the assay type; type: biochemical, Lactobacillus confusus; details: other: dehydrogenation, pH 8.0, 3 mmoles NAD+, with the enantiomer mixture based on the total concentration
Description: as §1

[7] = substrate: CC(C)C[C@H](O)C(=O)O; assay: purified protein, by the assay type; type: biochemical, Lactobacillus confusus; details: other: dehydrogenation, pH 8.0, 3 mmoles NAD+, with the enantiomer mixture based on the total concentration
Description: as §1

[8] = substrate: CCCCC(O)C(=O)O; assay: purified protein, by the assay type; type: biochemical, Lactobacillus confusus; details: other: dehydrogenation, pH 8.0, 3 mmoles NAD+, with the enantiomer mixture based on the total concentration
Description: as §1

[9] = substrate: CCCC(=O)C(=O)O; assay: purified protein, by the assay type; type: biochemical, Lactobacillus confusus; details: other: reduction, pH 7.0, 0.235 millimoles NADH
Description: as §2

[10] = substrate: CSCCC(=O)C(=O)O; assay: purified protein, by the assay type; type: biochemical, Lactobacillus confusus; details: other: reduction, pH 7.0, 0.235 millimoles NADH
Description: as §2

[11] = substrate: CCCCC(=O)C(=O)O; assay: purified protein, by the assay type; type: biochemical, Lactobacillus confusus; details: other: reduction, pH 7.0, 0.235 millimoles NADH
Description: as §2

[12] = substrate: CC(C)CC(=O)C(=O)O; assay: purified protein, by the assay type; type: biochemical, Lactobacillus confusus; details: other: reduction, pH 7.0, 0.235 millimoles NADH
Description: as §2

[13] = substrate: NC(=O)C1=CN([C@@H]2O[C@H](COP(=O)(O)OP(=O)(O)OC[C@H]3O[C@@H](n4cnc5c(N)ncnc54)[C@H](O)[C@@H]3O)[C@@H](O)[C@H]2O)C=CC1; assay: purified protein, by the assay type; details: other: pH 7.0, 0.79 millimole 2-keto-4-methylpentanoic acid, NADH 0.01 to 0.33 millimoles
[14] = test concentration 1 mM substrate
[15] = test concentration 10 mM substrate
[16] = test concentration 100 mM substrate
[17] = test concentration 0.1 mM substrate

relative activity [1, 14]: 8.4 U/ml
relative activity [1, 15]: 39.5 U/ml
relative activity [1, 16]: 3.9 U/ml
Molecule: CCCCC(O)C(=O)O (racemic) [DL-2-Hydroxyhexanoic acid]

relative activity [1, 14]: 6.2 U/ml
relative activity [1, 15]: 31.2 U/ml
relative activity [1, 16]: 5.3 U/ml
Molecule: CCCC(O)C(=O)O (racemic) [DL-2-Hydroxypentanoic acid]

relative activity [1, 14]: 28.4 U/ml
relative activity [1, 15]: 49.7 U/ml
relative activity [1, 16]: 5.0 U/ml
Molecule: CC(C)C[C@H](O)C(=O)O [L-2-Hydroxy-4-methylpentanoic acid]

Further lines, the molecule ahead of its results:

Molecule: CSCCC(O)C(=O)O (racemic) [DL-2-Hydroxy-4-(methylmercapto)-butyric acid]
relative activity [1, 14]: 0.46 U/ml
relative activity [1, 15]: 2.7 U/ml
relative activity [1, 16]: 5.1 U/ml

Molecule: CC(C)CC(O)C(=O)O (racemic) [DL-2-Hydroxy-4-methylpentanoic acid]
relative activity [1, 14]: 16.6 U/ml
relative activity [1, 15]: 39.8 U/ml
relative activity [1, 16]: 2.9 U/ml

Molecule: CSCCC(=O)C(=O)O [2-Keto-4-(methylmercapto)-butyric acid]
relative activity [2, 17]: 33 U/ml
relative activity [2, 14]: 93 U/ml
relative activity [2, 15]: 53 U/ml

Molecule: CC(C)CC(=O)C(=O)O [2-Keto-4-methylpentanoic acid]
relative activity [2, 17]: 133 U/ml
relative activity [2, 14]: 259 U/ml
relative activity [2, 15]: 144 U/ml

Molecule: CCCCC(=O)C(=O)O [2-Ketohexanoic acid]
relative activity [2, 17]: 123 U/ml
relative activity [2, 14]: 301 U/ml
relative activity [2, 15]: 103 U/ml

Molecule: CCCC(=O)C(=O)O [2-Ketopentanoic acid]
relative activity [2, 17]: 149 U/ml
relative activity [2, 14]: 344 U/ml
relative activity [2, 15]: 161 U/ml

B1: L-2-hydroxy-4-methylpentanoic acid-dehydrogenase (Weissella confusa) (protein)
chain: T1 sequence (P14295 1-310)
notes: the cells harvesting by centrifugation, solubilizing the product in a suspension buffered to pH 7 and obtaining the enzyme from the extract; made in house; host or cells: Lactobacillus confusus DSM 20196 (natural producer, not recombinant)
Km [3]: 330 µM
Km [4]: 11000 µM
Vmax [4]: 1.2 µmol/min/mg
Km [5]: 3550 µM
Km [6]: 1400 µM
Vmax [6]: 9.6 µmol/min/mg
Km [7]: 620 µM
Vmax [7]: 9.8 µmol/min/mg
Km [8]: 4500 µM
Km [9]: 250 µM
Km [10]: 210 µM
Vmax [10]: 28 µmol/min/mg
Km [11]: 120 µM
Km [12]: 70 µM
Vmax [12]: 64 µmol/min/mg
Km [13]: 3.3e-05 mol
